Results taken from patent US10869878B2, “Vaginal composition and use thereof” (SINGAPORE ZE&Z INTERNATIONAL PTE. LTD, priority 2014, dated 2020).

Tests used:
Assay type in all cases: cell-based
BV-associated bacteria [1] = experiment: Acid production by BV-associated bacteria in carbohydrate containing gels, slightly aerobic incubation (Experimental Example 1); details: 1% (w/v) carbohydrate gel
Excerpt: (1) Grouping in experiment: • (1) Isomaltulose group: containing 1% (w/v) isomaltulose, MRS basal medium without carbohydrate, 5% (w/v) calf serum, and 0.5% (w/v) xanthan gum, pH5.4; • (2) Isomaltose group: containing 1% (w/v) isomaltose, MRS basal medium without carbohydrate, 5% (w/v) calf serum, and 0.5% (w/v) xanthan gum, pH5.4; • (3) Sucrose group: containing 1% (w/v) sucrose, MRS basal medium without carbohydrate, 5% (w/v) calf serum, and 0.5% (w/v) xanthan gum, pH5.4; and • (4) Maltose group: containing 1% (w/v) maltose, MRS basal medium without carbohydrate, 5% (w/v) calf serum, and 0.5% (w/v) xanthan gum, pH5.4.
The gel of each group was formulated essentially following the method described in Composition Example 1, then sterilized, added with calf serum, and packed in test tubes in a specification of 5 g/tube, for late use.
(§1) (2) Secretion specimens from BV patients: vaginal secretions from 5 BV patients; and the criteria of inclusion are: • (1) conforming to the Amsel clinical criteria of BV diagnosis, wherein the pH value of the vaginal secretions was >4.6; • (2) after smearing, Gram staining and microscopical examination of vaginal secretions, Nugent score ≥7; and • (3) no other vaginosis and no antimicrobial agent is used within two weeks.
(3) After sampling, the secretion specimens from BV patients meeting the criteria of inclusion were immediately inoculated to the above 4 gels containing a carbohydrate, and slightly aerobically incubated at 37° C. for 46 hrs. The pH values of the gel matrices are detected with a precise pH test paper respectively at 14 hrs, 36 hrs, and 46 hrs.

BV-associated bacteria [2] = experiment: Acid production by BV-associated bacteria in semi-solid agars containing a carbohydrate, anaerobic incubation (Experimental Example 2); details: 24 hrs anaerobic, 37° C., 1.5% (w/v) carbohydrate, initial pH 5.4
Excerpt: (1) Grouping in experiment: • (1) Glucose group: containing 1.5% (w/v) glucose, MRS basal medium without carbohydrate, 5% (w/v) calf serum, and 0.45% (w/v) agar, pH5.4; • (2) Fructose group: containing 1.5% (w/v) fructose, MRS basal medium without carbohydrate, 5% (w/v) calf serum, and 0.45% (w/v) agar, pH5.4; • (3) Mannose group: containing 1.5% (w/v) mannose, MRS basal medium without carbohydrate, 5% (w/v) calf serum, and 0.45% (w/v) agar, pH5.4; • (4) Sucrose group: containing 1.5% (w/v) sucrose, MRS basal medium without carbohydrate, 5% (w/v) calf serum, and 0.45% (w/v) agar, pH5.4; • (5) Maltose group: containing 1.5% (w/v) maltose, MRS basal medium without carbohydrate, 5% (w/v) calf serum, and 0.45% (w/v) agar, pH5.4; • (6) Isomaltose group: containing 1.5% (w/v) isomaltose, MRS basal medium without carbohydrate, 5% (w/v) calf serum, and 0.45% (w/v) agar, pH5.4; and • (7) Isomaltulose group: containing 1.5% (w/v) isomaltulose, MRS basal medium without carbohydrate, 5% (w/v) calf serum, and 0.45% (w/v) agar, pH5.4.
The semi-solid agar of each group was formulated essentially following the method described in Composition Example 1, then sterilized, added with calf serum, and packed in test tubes in a specification of 5 g/tube, for late use.
as §1
(3) After sampling, the secretion specimens from BV patients meeting the criteria of inclusion were immediately inoculated to the above 7 aseptic semi-solid agars containing a carbohydrate at the bedside and anaerobically incubated at 37° C. for 24 hrs. The pH values of the agar matrices are detected with a precise pH test paper.

[3] = tested on: Lactobacilli in the secretions from BV patients; experiment: Selective promotion of carbohydrate containing gels for the growth of Lactobacilli, 16s rDNA identification (Experimental Example 4); details: secretions from 20 BV patients; 1% (w/v) carbohydrate gel, 48 hrs slightly aerobic
Protocol: (§2) (3) After sampling, the vaginal secretion specimens from BV patients meeting the criteria of inclusion were immediately inoculated to the above 4 gels containing a carbohydrate, slightly aerobically incubated at 37° C. for 48 hrs, then transferred to a plate containing improved MRS with 1% (w/v) glucose and 5% (w/v) calf serum, slightly aerobically incubated for 20-48 hrs, isolated, purified and multiplied. The strain was identified by 16s rDNA sequencing.

Canidia albicans = experiment: Metabolization of carbohydrates by Canidia albicans, residual carbohydrate by HPLC (Experimental Example 5); details: 72 hrs aerobic, 37° C., initial 1.5% (w/v) carbohydrate, pH 7.0, detection limit 0.05% (w/v)
Protocol: (1) Grouping in experiment:
(2) Test strain: 2 strains of Canidia albicans, isolated from patients with candidal vaginitis.
The supernatant was separated by centrifugation, and packed in a specification of 5 ml/tube. The carbohydrate content in each tube was detected by HPLC.

[4] = tested on: Gardnerella vaginalis in the secretions from BV patients; experiment: Selective promotion of carbohydrate containing gels for the growth of Gardnerella vaginalis (Experimental Example 4); details: secretions from 20 BV patients; 1% (w/v) carbohydrate gel, 48 hrs slightly aerobic
Protocol: as §2

[5] = tested on: Bifidobacteria in the secretions from BV patients; experiment: Selective promotion of carbohydrate containing gels for the growth of Bifidobacteria (Experimental Example 4); details: secretions from 20 BV patients; 1% (w/v) carbohydrate gel, 48 hrs slightly aerobic
Protocol: as §2

[6] = Specimen 1, 14 hrs, slightly aerobic, 37° C., initial pH 5.4
[7] = Specimen 1, 46 hrs, slightly aerobic, 37° C., initial pH 5.4
[8] = Specimen 2, 14 hrs, slightly aerobic, 37° C., initial pH 5.4
[9] = Specimen 2, 46 hrs, slightly aerobic, 37° C., initial pH 5.4
[10] = Specimen 3, 14 hrs, slightly aerobic, 37° C., initial pH 5.4
[11] = Specimen 3, 36 hrs, slightly aerobic, 37° C., initial pH 5.4
[12] = Specimen 4, 14 hrs, slightly aerobic, 37° C., initial pH 5.4
[13] = Specimen 4, 36 hrs, slightly aerobic, 37° C., initial pH 5.4
[14] = Specimen 5, 14 hrs, slightly aerobic, 37° C., initial pH 5.4
[15] = Specimen 5, 36 hrs, slightly aerobic, 37° C., initial pH 5.4

Q: With OC[C@H]1O[C@H](OC[C@H]2OC(O)[C@H](O)[C@@H](O)[C@@H]2O)[C@H](O)[C@@H](O)[C@@H]1O (stereo partly drawn) [Isomaltose, isomaltose] as the compound, how does the “pH of the gel” value (BV-associated bacteria [1]; Specimen 1, 0 hr (initial)) read?
A: The value was 5.4.

Q: What about the “pH of the gel” value (BV-associated bacteria [1]; [6]) of the same compound?
A: Its value is 3.8.

Q: What about the “pH of the gel” value (BV-associated bacteria [1]; [7]) of the same compound?
A: The value was ≤3.8.

Q: What about the “pH of the gel” value (BV-associated bacteria [1]; Specimen 2, 0 hr (initial)) of the same compound?
A: Its value is 5.4.

Q: And the “pH of the gel” value (BV-associated bacteria [1]; [8])?
A: The value was 4.1-4.4.

Q: What about the “pH of the gel” value (BV-associated bacteria [1]; [9]) of the same compound?
A: The value was ≤3.8.

Q: What about the “pH of the gel” value (BV-associated bacteria [1]; Specimen 3, 0 hr (initial)) of the same compound?
A: The value was 5.4.

Q: And the “pH of the gel” value (BV-associated bacteria [1]; [10])?
A: Its value is 4.1-4.4.

Q: What about the “pH of the gel” value (BV-associated bacteria [1]; [11]) of the same compound?
A: Its value is ≤3.8.

Q: And the “pH of the gel” value (BV-associated bacteria [1]; Specimen 4, 0 hr (initial))?
A: The value was 5.4.

Q: What about the “pH of the gel” value (BV-associated bacteria [1]; [12]) of the same compound?
A: Its value is 4.4.

Q: What about the “pH of the gel” value (BV-associated bacteria [1]; [13]) of the same compound?
A: Its value is ≤3.8.

Q: What about the “pH of the gel” value (BV-associated bacteria [1]; Specimen 5, 0 hr (initial)) of the same compound?
A: Its value is 5.4.

Q: And the “pH of the gel” value (BV-associated bacteria [1]; [14])?
A: Its value is 4.1-4.4.

Q: And the “pH of the gel” value (BV-associated bacteria [1]; [15])?
A: The value was 4.1-4.4.

Q: And the “pH of the semi-solid agar” value (BV-associated bacteria [2]; Specimen 1)?
A: The value was 3.8-4.1.

Q: And the “pH of the semi-solid agar” value (BV-associated bacteria [2]; Specimen 2)?
A: Its value is 4.1.

Q: And the “pH of the semi-solid agar” value (BV-associated bacteria [2]; Specimen 3)?
A: The value was 3.8.

Q: And the “pH of the semi-solid agar” value (BV-associated bacteria [2]; Specimen 4)?
A: The value was 3.8.

Q: What about the “pH of the semi-solid agar” value (BV-associated bacteria [2]; Specimen 5) of the same compound?
A: Its value is 3.8.

Q: And the “samples positive for Lactobacilli, In total” value [3]?
A: Its value is 9.

Q: And the “total number of samples positive for L. amylovorus incubation” value [3]?
A: Its value is 1.

Q: And the “total number of samples positive for L. crispatus incubation” value [3]?
A: Its value is 1.

Q: What about the “total number of samples positive for L. gasseri incubation” value [3] of the same compound?
A: The value was 2.

Q: What about the “total number of samples positive for L. iners incubation” value [3] of the same compound?
A: The value was 0.

Q: And the “total number of samples positive for L. jensenii incubation” value [3]?
A: The value was 4.

Q: What about the “total number of samples positive for L. mucosae incubation” value [3] of the same compound?
A: Its value is 1.

Q: And the “residual carbohydrate content by HPLC” value (Canidia albicans; Canidia albicans 1)?
A: Its value is 0.74 g %.

Q: What about the “residual carbohydrate content by HPLC” value (Canidia albicans; Canidia albicans 2) of the same compound?
A: Its value is 0.76 g %.

Q: And the “number of samples positive for Gardnerella vaginalis” value [4]?
A: The value was 2 (15, 19).

Q: What about the “samples positive for Gardnerella vaginalis, In total” value [4] of the same compound?
A: The value was 2.

Q: What about the “number of samples positive for Bifidobacterium bifidum” value [5] of the same compound?
A: The value was 0.

Q: What about the “number of samples positive for Bifidobacterium breve” value [5] of the same compound?
A: The value was 0.

Q: And the “number of samples positive for Bifidobacterium dentium” value [5]?
A: The value was 0.

Q: And the “number of samples positive for Bifidobacterium longum” value [5]?
A: The value was 0.

Q: And the “samples positive for Bifidobacteria, In total” value [5]?
A: Its value is 0.

Q: What does the source list for OC[C@H]1O[C@H](OC[C@H]2OC(O)(CO)[C@@H](O)[C@@H]2O)[C@H](O)[C@@H](O)[C@@H]1O (stereo partly drawn) [Isomaltulose, isomaltulose]?
A: pH of the gel (BV-associated bacteria [1]; Specimen 1, 0 hr (initial)): 5.4; pH of the gel (BV-associated bacteria [1]; [6]): ≤3.8; pH of the gel (BV-associated bacteria [1]; [7]): ≤3.8; pH of the gel (BV-associated bacteria [1]; Specimen 2, 0 hr (initial)): 5.4; pH of the gel (BV-associated bacteria [1]; [8]): 4.1; pH of the gel (BV-associated bacteria [1]; [9]): ≤3.8; pH of the gel (BV-associated bacteria [1]; Specimen 3, 0 hr (initial)): 5.4; pH of the gel (BV-associated bacteria [1]; [10]): 3.8-4.1; pH of the gel (BV-associated bacteria [1]; [11]): ≤3.8; pH of the gel (BV-associated bacteria [1]; Specimen 4, 0 hr (initial)): 5.4; pH of the gel (BV-associated bacteria [1]; [12]): 4.1; pH of the gel (BV-associated bacteria [1]; [13]): ≤3.8; pH of the gel (BV-associated bacteria [1]; Specimen 5, 0 hr (initial)): 5.4; pH of the gel (BV-associated bacteria [1]; [14]): 4.1-4.4; pH of the gel (BV-associated bacteria [1]; [15]): ≤3.8; pH of the semi-solid agar (BV-associated bacteria [2]; Specimen 1): 3.8; pH of the semi-solid agar (BV-associated bacteria [2]; Specimen 2): 3.8; pH of the semi-solid agar (BV-associated bacteria [2]; Specimen 3): 3.8; pH of the semi-solid agar (BV-associated bacteria [2]; Specimen 4): 3.8; pH of the semi-solid agar (BV-associated bacteria [2]; Specimen 5): 3.8; samples positive for Lactobacilli, In total [3]: 9; total number of samples positive for L. amylovorus incubation [3]: 1; total number of samples positive for L. crispatus incubation [3]: 1; total number of samples positive for L. gasseri incubation [3]: 2; total number of samples positive for L. iners incubation [3]: 0; total number of samples positive for L. jensenii incubation [3]: 4^1; total number of samples positive for L. mucosae incubation [3]: 1; residual carbohydrate content by HPLC (Canidia albicans; Canidia albicans 1): 0.11 g %; residual carbohydrate content by HPLC (Canidia albicans; Canidia albicans 2): 0.12 g %; number of samples positive for Gardnerella vaginalis [4]: 2 (15, 19); samples positive for Gardnerella vaginalis, In total [4]: 2; number of samples positive for Bifidobacterium bifidum [5]: 0; number of samples positive for Bifidobacterium breve [5]: 0; number of samples positive for Bifidobacterium dentium [5]: 0; number of samples positive for Bifidobacterium longum [5]: 0; samples positive for Bifidobacteria, In total [5]: 0
